From patent publication US12545681B2, “Compound used as RET kinase inhibitor and application thereof” (TYK Medicines, Inc., priority 2020, dated 2026)
Numbering of substitutions follows the chain as printed.

Experiments:
Assay type in all cases: cell-based
Ba/F3-KIF5B-RET = molecular target: T1, Ba/F3-KIF5B-RET (Homo sapiens, UniProt P07949); assay: Cell anti-proliferation (CellTiter-Glo), Ba/F3-KIF5B-RET cells; details: for IC50: cell viability, 72 h incubation, CellTiter-Glo
T1 construct: KIF5B (fusion partner, N-terminal part of kinesin-1 heavy chain, P33176); host or cells: Ba/F3 (murine pro-B cells); the other entry of the earlier key: KIF5B (P33176, Kinesin-1 heavy chain)
T1 sequence (P07949 713-1063 limits assumed): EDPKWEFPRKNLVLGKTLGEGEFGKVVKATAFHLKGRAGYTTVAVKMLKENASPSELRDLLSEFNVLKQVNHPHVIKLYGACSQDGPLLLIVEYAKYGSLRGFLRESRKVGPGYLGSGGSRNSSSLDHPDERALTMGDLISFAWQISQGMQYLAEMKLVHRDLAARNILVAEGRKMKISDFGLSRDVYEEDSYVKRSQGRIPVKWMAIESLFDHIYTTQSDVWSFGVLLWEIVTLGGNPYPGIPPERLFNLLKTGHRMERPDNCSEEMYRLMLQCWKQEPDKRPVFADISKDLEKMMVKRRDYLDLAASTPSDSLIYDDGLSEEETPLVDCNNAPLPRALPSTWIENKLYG
Method: (§1) Ba/F3-KIF5B-RET, Ba/F3-KIF5B-RET-V804L and Ba/F3-KIF5B-RET-V804M cells were constructed by PreceDo Pharmaceuticals Co., Ltd.
(§2) Ba/F3-KIF5B-RET, Ba/F3-KIF5B-RET-V804L and Ba/F3-KIF5B-RET-V804M medium: RPMI-1640+10% FBS+1% P/S.
(§3) A 1000×solution of the compound was prepared with DMSO, the compound was diluted to 20 times to obtain the final concentration with a growth medium, and 2 μl 1000×cpd was added to 98 μl growth medium.
(§4) Cells were centrifuged and resuspended with growth medium and cell counting was performed using a cell counter. The cell suspension was diluted with growth medium to the desired concentration. 95 uL of the diluted cell suspension was taken out to a 96-well plate. 5 μL of 20×compound solution was added to the 96-well plate to a final DMSO concentration of 0.1% per well. The 96-well plate was incubated for 72 h at 37° C. with 5% CO2.
(§5) The 96-well plate was equilibrated to room temperature before the assay, 50 μl of CellTiter-Glo® Reagent was added to each well, the cells were fully lysed by shaking for 2 minutes on a shaker, incubated for 10 minutes at room temperature, and Paradigm was used to detect and record the […] readings.
(§6) Cell viability was analyzed using Graphpad 7.0 software according to the formula Cell viability (CV %)=(RLU compound−RLU blank)/(RLU control−RLU blank)*100%, and the corresponding IC50 data were calculated, in Table 1, the following names are used: <10.00 nM=A; 10.01-50.0 nM=B; >50 nM=C.

Ba/F3-KIF5B-RET-V804M = molecular target: T2, Ba/F3-KIF5B-RET-V804M (Homo sapiens, UniProt P07949, V804M); assay: Cell anti-proliferation (CellTiter-Glo), Ba/F3-KIF5B-RET-V804M cells; details: cell viability, 72 h incubation
T2 construct: KIF5B (fusion partner, N-terminal part of kinesin-1 heavy chain, P33176); host or cells: Ba/F3 (murine pro-B cells); the other entry of the earlier key: KIF5B (P33176, Kinesin-1 heavy chain)
T2 sequence (P07949 713-1063 V804M limits assumed): T1 sequence (P07949 713-1063 limits assumed) with V92M
Method: as §1, §2, §3, §4, §5, §6

Ba/F3-KIF5B-RET-V804L = molecular target: T3, Ba/F3-KIF5B-RET-V804L (Homo sapiens, UniProt P07949, V804L); assay: Cell anti-proliferation (CellTiter-Glo), Ba/F3-KIF5B-RET-V804L cells; details: cell viability, 72 h incubation
T3 construct: KIF5B (fusion partner, N-terminal part of kinesin-1 heavy chain, P33176); host or cells: Ba/F3 (murine pro-B cells); the other entry of the earlier key: KIF5B (P33176, Kinesin-1 heavy chain)
T3 sequence (P07949 713-1063 V804L limits assumed): T1 sequence (P07949 713-1063 limits assumed) with V92L
Method: as §1, §2, §3, §4, §5, §6

RET inhibitory activity / inhibition effect (in words) (Ba/F3-KIF5B-RET; summary of Table 1, especially Ba/F3-KIF5B-RET-V804M and Ba/F3-KIF5B-RET-V804L)	Compound	IC50 (Ba/F3-KIF5B-RET) [nM]	IC50 (Ba/F3-KIF5B-RET-V804M) [nM]	IC50 (Ba/F3-KIF5B-RET-V804L) [nM]
–	COCCn1ncc2c(Nc3cc(C)[nH]n3)nc([C@H]3CC[C@](OC)(C(=O)N[C@@H](C)c4cnc(-n5cc(F)cn5)cn4)CC3)nc21 [Compound C10]	< 10	10 to 50	< 10
–	CCn1ncc2c(Nc3cc(C)[nH]n3)nc([C@H]3CC[C@](OC)(C(=O)N[C@@H](C)c4cnc(-n5cc(F)cn5)cn4)CC3)nc21 [Compound C5]	< 10	< 10	< 10
–	CO[C@]1(C(=O)N[C@@H](C)c2cnc(-n3cc(F)cn3)cn2)CC[C@H](c2nc(Nc3cc(C)[nH]n3)c3cn(CC(F)(F)F)nc3n2)CC1 [Control Example 3, reference compound]	10 to 50	> 50	10 to 50
–	CCn1ncc2c(Nc3cc(C)[nH]n3)nc([C@H]3CC[C@](OC)(C(=O)N[C@@H](C)c4csc(-n5cc(F)cn5)n4)CC3)nc21 [Compound C15]	< 10	10 to 50	< 10
–	CO[C@]1(C(=O)N[C@@H](C)c2cnc(-n3cc(F)cn3)cn2)CC[C@H](c2nc(Nc3cc(C)[nH]n3)c3cnn(C4CC(F)(F)C4)c3n2)CC1 [Compound C11]	10 to 50	10 to 50	10 to 50
–	CO[C@]1(C(=O)N[C@@H](C)c2csc(-n3cc(F)cn3)n2)CC[C@H](c2nc(Nc3cc(C)[nH]n3)c3cnn(C4CC4)c3n2)CC1 [Compound C16]	< 10	10 to 50	< 10
superior to that of Control Example 3	CO[C@]1(C(=O)N[C@@H](C)c2cnc(-n3cc(F)cn3)cn2)CC[C@H](c2nc(Nc3cc(C)[nH]n3)c3cnn(CC(F)(F)F)c3n2)CC1 [Compound C23]	< 10	10 to 50	< 10
–	CO[C@]1(C(=O)N[C@@H](C)c2cnc(-n3cc(F)cn3)cn2)CC[C@H](c2nc(Nc3cc(C)[nH]n3)c3cnn(CC4CC4)c3n2)CC1 [Compound C12]	< 10	10 to 50	< 10
–	CO[C@]1(C(=O)N[C@@H](C)c2cnc(-n3cc(F)cn3)cn2)CC[C@H](c2nc(Nc3cc(C)[nH]n3)c3cnn(C)c3n2)CC1 [Compound C8]	< 10	< 10	< 10
–	CCCn1ncc2c(Nc3cc(C)[nH]n3)nc([C@H]3CC[C@](OC)(C(=O)N[C@@H](C)c4cnc(-n5cc(F)cn5)cn4)CC3)nc21 [Compound C22]	10 to 50	10 to 50	10 to 50
–	CO[C@]1(C(=O)N[C@@H](C)c2ccc(-n3cc(F)cn3)nc2)CC[C@H](c2nc(Nc3cc(C)[nH]n3)c3cnn(CCF)c3n2)CC1 [Compound C18]	< 10	< 10	< 10
–	CO[C@]1(C(=O)N[C@@H](C)c2cnc(-n3cc(F)cn3)cn2)CC[C@H](c2nc(Nc3cc(C)[nH]n3)c3cnn(C4COC4)c3n2)CC1 [Compound C21]	10 to 50	10 to 50	10 to 50
–	CO[C@]1(C(=O)N[C@@H](C)c2cnc(-n3cc(F)cn3)s2)CC[C@H](c2nc(Nc3cc(C)[nH]n3)c3cnn(C4CC4)c3n2)CC1 [Compound C14]	< 10	10 to 50	< 10
–	CO[C@]1(C(=O)N[C@@H](C)c2ccc(-n3cc(F)cn3)nc2)CC[C@H](c2nc(Nc3cc(C)[nH]n3)c3cnn(COCC[Si](C)(C)C)c3n2)CC1 [Compound C2]	> 50	> 50	10 to 50
–	CO[C@]1(C(=O)N[C@@H](C)c2cnc(-n3cc(F)cn3)cn2)CC[C@H](c2nc(Nc3cc(C)[nH]n3)c3cnn(CC(F)F)c3n2)CC1 [Compound C7]	< 10	< 10	< 10
–	CO[C@]1(C(=O)N[C@@H](C)c2cnc(-n3cc(F)cn3)cn2)CC[C@H](c2nc(Nc3cc(C)[nH]n3)c3cnn(C4CC4)c3n2)CC1 [Compound C20]	< 10	< 10	< 10
